According to patent US10385108B2, “Peptide analogs of alpha-melanocyte stimulating hormone” (Genzyme Corporation, priority 2008, dated 2019):

Legend:
[1] = target: MC5R (Homo sapiens, UniProt P33032); experiment: Competitive binding with 125I-NDP-MSH, HEK293 membrane preparations, MC5R
Procedure: (§1) Binding analysis was done by Cerep laboratories (Paris, France) with coded samples.
(§2) The mixtures were filtered through 96-well GFC filters (Millipore, Billerica, Mass.), washed 3 times with binding buffer without BSA, dried and counted.
(§3) A competitive binding assay using a MCR panel including MCR 1, 3, 4, and 5 was performed.

[2] = test system: B16-F1 murine melanoma cells; experiment: Intracellular cAMP in B16-F1 melanoma cells; assay type: cell-based
Procedure: B16-F1 (melanoma cell line) cells from American Type Culture Collection (Manassas, Va.) were seeded into flat bottom 96 well plates at 5×10^4/well and cultured overnight in DMEM (Cambrex, Walkersville, Md.) supplemented with 2 mM glutamine, antibiotics (100 U/ml penicillin and 100 […]) and 10% heat-inactivated fetal bovine serum (Invitrogen, Grand Island, N.Y.). […] Cells were lysed and intracellular cAMP levels were measured by an enzyme immunoassay kit (Amersham Biosciences, Piscataway, N.J.). Forskolin (Sigma, St. Louis, Mo.) at 100 μM served as positive controls.
cAMP levels in B16-F1 melanoma cells after treatment with native α-MSH, RI α-MSH, or a scrambled control peptide were examined. The […] melanoma cell line expresses a high number of MCR1 receptors (3000-4000 receptors/cell) compared with macrophages cell lines which express only 100-200 receptors/cell. Therefore we selected to examine the effect of the RI α-MSH treatment on the melanoma cell line. Murine melanoma B16-F1 cells were treated with native α-MSH, RI α-MSH, or control scrambled peptide at concentrations 1 pg/ml-1 μg/ml. After 30 min, cells were lysed and intracellular cAMP was measured by an enzyme immunoassay. […] However, a higher concentration of RI α-MSH (100 ng/ml) was necessary to increase cAMP compared with native α-MSH which increased cAMP at a 10 pg/ml concentration. This difference in concentration of peptide necessary to increase cAMP levels may be the result of the binding affinity to the MCR1 receptor.
Murine melanoma B16-F1 cells were treated with native α-MSH, RI α-MSH, scrambled peptide control, KPV, or alanine substituted peptides of RI α-MSH at 1 μg/ml (FIG. 7B). […] Peptides designated 810, 811, and 812 have alanine substitutions in the central core tetrapeptide sequence (D-Trp D-Arg D-Phe D-His region; AA 5-8) (variant disclosed in SEQ ID NO:2) proposed to be involved in native α-MSH binding to the melanocortin receptor and its biological activity. […] The residues in the core tetrapeptide (wrfh) (variant disclosed in SEQ ID NO:2) and to a lesser extent, the methionine 4 of RI-MSH are critical for binding to MC1R.
B16-F1 murine melanoma cells were cultured into 96 well plates 5×10^4 cells/well overnight in media with L-glutamine and pen/strep and FBS. Media was removed and new media with IBMX was added to the cells for 1 hr. Cells were then treated with RI α-MSH, or RI α-MSH peptide analogs (890, 891, 892, 893, 894 or 895). Cells were lysed after 30 min using a cAMP assay kit and supernatant were used in the assay. Forskolin at 10 μM served as positive controls.
Intracellular cAMP was measured using a cAMP competition Assay Kit (Amersham Biosciences). All cell lysate samples were diluted 1:100 for analysis.
Murine melanoma B16-F1 cells were treated with RI α-MSH, or RI α-MSH analogs (869, 872, 880, 878, 886 and 890-895) at a concentration range of 10^−4-10^−11 M. cAMP levels from cells treated with RI α-MSH, or RI α-MSH analogs. […] See FIG. 22 for graphical data and Table 2 for EC50 data.

[3] = test system: C57BL/6 mice; experiment: MOG35-55 induced EAE model; assay type: in vivo
[4] = target: MC3R (Homo sapiens, UniProt P41968); experiment: Competitive binding with 125I-NDP-MSH, HEK293 membrane preparations, MC3R
MC3R, sequence (P41968 whole entry): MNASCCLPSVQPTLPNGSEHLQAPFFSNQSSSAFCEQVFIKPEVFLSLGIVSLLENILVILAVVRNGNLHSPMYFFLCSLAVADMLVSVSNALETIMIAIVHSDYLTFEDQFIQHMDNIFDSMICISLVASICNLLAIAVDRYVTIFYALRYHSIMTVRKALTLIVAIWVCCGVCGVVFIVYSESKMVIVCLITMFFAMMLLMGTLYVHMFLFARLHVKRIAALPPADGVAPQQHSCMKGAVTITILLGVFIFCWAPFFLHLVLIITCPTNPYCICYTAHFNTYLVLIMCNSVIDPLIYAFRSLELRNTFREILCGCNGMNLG
Procedure: as §1, §2, §3

[5] = Example 10, 100 μg/mouse i.p. daily from day 10

MC5R, sequence (P33032 whole entry): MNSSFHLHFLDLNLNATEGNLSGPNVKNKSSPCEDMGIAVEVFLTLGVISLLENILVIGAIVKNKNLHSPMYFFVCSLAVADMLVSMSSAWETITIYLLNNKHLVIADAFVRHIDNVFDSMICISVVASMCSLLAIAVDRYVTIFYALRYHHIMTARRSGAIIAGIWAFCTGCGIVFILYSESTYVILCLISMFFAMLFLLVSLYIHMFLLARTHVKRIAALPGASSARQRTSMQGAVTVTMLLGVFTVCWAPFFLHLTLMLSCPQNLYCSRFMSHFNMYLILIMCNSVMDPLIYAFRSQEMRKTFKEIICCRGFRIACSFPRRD

Ki ([1]; Ki MC5R, competition with 125I-NDP-MSH, cells noted in μM): ~25 µM
binding to MCR-5 (in words) ([1]; MCR panel 1, 3, 4, 5): bind only to MCR-1
EC50 ([2]; B16-F1 cells, 10^-4-10^-11 M, 30 min, IBMX): 9.7 µM
Ki [4]: > 30 µM
binding to MCR-3 (in words) ([4]; MCR panel 1, 3, 4, 5): bind only to MCR-1
SMILES: CSCC[C@@H](NC(=O)[C@@H](CCC(=O)O)NC(=O)[C@@H](Cc1c[nH]cn1)NC(=O)[C@@H](Cc1ccccc1)NC(=O)[C@@H](CCCNC(=N)N)NC(=O)[C@@H](Cc1c[nH]c2ccccc12)NC(=O)CNC(=O)[C@@H](CCCCN)NC(=O)[C@H]1CCCN1C(=O)[C@H](NC(C)=O)C(C)C)C(=O)N[C@H](CO)C(=O)N[C@H](Cc1ccc(O)cc1)C(=O)N[C@H](CO)C(N)=O [RI-MSH, vpkGwrfhemsys]
cAMP levels, dose response (in words) ([2]; 1 pg/ml-1 μg/ml, 30 min, vs untreated or scrambled peptide): significantly increased cAMP levels in a dose dependent manner
concentration necessary to increase cAMP ([2]; 30 min): 100 ng/mL
cAMP levels (in words) ([2]; peptide at 1 μg/ml): significantly elevated
spinal cord histopathology (in words) ([3]; 100 μg/mouse i.p. daily from day 10, day 24): lack focal area of inflammation
TNF-α mRNA in spleen vs PBS (in words) ([3]; Day 1 and Day 4 of treatment): no significant change
IL-10 mRNA in spleen vs PBS (in words) ([3]; Day 7 of treatment): reduced
maximum percent incidence of disease [3, 5]: 20%
mean clinical disease score vs PBS (in words) [3, 5]: significant reduction in the mean clinical disease score
mean clinical scores (in words) ([3]; Example 11, 30 μg/mouse i.p. daily from day 10): did not have a significant effect
maximum percent incidence of disease ([3]; Example 11, dexamethasone 2 mg/kg): 35%
mean clinical disease score vs PBS (in words) ([3]; Example 11, peptides 100 μg/mouse, dexamethasone 2 mg/kg, i.p. daily from day 10): reduction in the mean clinical disease score
TNF-α mRNA in spleen vs PBS (in words) ([3]; after 7 days of daily treatment): significantly decreased
IL-10 mRNA in spleen vs PBS (in words) ([3]; earlier timepoints (Day 1 and 4)): no difference
